As usually defined, the GI50 is the concentration at which growth is held to half of that of the control. Read a high GI50 as less potent growth inhibition.

Consider 25 compounds from patent US11254680B2, “Cyclic iminopyrimidine derivatives as kinase inhibitors” (ABM Therapeutics Corporation, priority 2017, dated 2022).

In the assay the test system is A375 melanoma cells. The assay can be described thus: Antiproliferation assay in A375 cell line by CellTiter Glo. The format is cell-based. The settings on record: Homo sapiens, A-375, 72 hours or 144 hours. As for the experimental part: In vitro anti-proliferation study of test compounds in A375 cell line by CellTiter Glo. The cells were routinely maintained as a monolayer culture in corresponding culture medium, at 37° C. with 5% CO2 in air.
Harvest the exponential growth cells by trypsin-EDTA digestion. Re-suspend the cell pellet in fresh culture medium, and adjust the concentration to needed (the cell density per well was listed in following form). The cell viability is over 98% by Trypan blue staining. Inoculate cells into 96 wells plates according to the plate map (90 μL/well). Incubate the plates at 37° C. and 5% CO2 overnight. The next day, prepare the 10×compound containing medium according to the plate map. Transfer 10 μL of 10×compound containing medium into each well of the assay plates (the final DMSO concentration is 0.5%). Gently mix the medium and incubate at 37° C. and 5% CO2 for another 72 hours or 144 hours.
Prepare the reagent according to the manufacture's instruction. Add 50 μL CellTiter-Glo Reagent in each well. Mix contents for 2 minutes on an orbital shaker to induce cell lysis. Allow the plate to incubate at room temperature for 10 minutes to stabilize luminescent signal. Transfer 100 μL of reaction contents of each well from the clear plates into white walled/white opaque 96-well plates. Record the luminescence on Envision.
Using the luminescence measurements [time zero (T0), control growth (C), and test growth in the presence of drug at the six concentration levels (Ti)], the percentage growth is calculated at each of the drug concentrations levels.
Percentage growth inhibition (GI) is calculated as: GI (%)═[(Ti-T0)/(C-T0)]×100 for concentrations for which Ti>=T0, and GI (%)═[(Ti-T0)/T0]×100 for concentrations for which Ti<T0. Data were analyzed using the XLFit (Excel) tool, fitting to a 4-parameter equation to generate concentration response curves. Concentration of compound that inhibits 50% of control cell growth (GI50) was back-interpolated when y=50% of net growth of DMSO treated control wells using nonlinear regression with the equation: f(x) 205 [fit=(A+((B−A)/(1+((C/x)^))))], where A is the minimum response (Ymin), B is the maximum response (Ymax), C is the inflection point of the curve (Re GI50) and D is the Hill coefficient. Growth inhibition of 50% (GI50) was calculated at the 50% Growth inhibition on the curve. Index values were the sum of Inhibition rate (IR) at each tested compound concentration.
(ATP-based viability assays read luminescence as a measure of living cells.)

Turning to `CCCS(=O)(=O)Nc1c(F)cc(F)c(Oc2ccc3c(c2)C2=NCCN2C=N3)c1C#N` [Compound 4, N-(2-Cyano-3-((2,3-dihydroimidazo[1,2-c]quinazolin-9-yl)oxy)-4,6-difluorophenyl)propane-1-sulfonamide], the GI50 fell in the range of 100 to 1000 nM. In turn, `CCCS(=O)(=O)Nc1ccc([N+](=O)[O-])c(Oc2ccc3c(c2)C2=NCCN2C=N3)c1F` [Compound 7, N-(3-((2,3-Dihydroimidazo[1,2-c]quinazolin-9-yl)oxy)-2-fluoro-4-nitrophenyl)propane-1-sulfonamide] yielded a GI50 of over 1000 nM.

Take `CCCS(=O)(=O)Nc1ccc(N)c(Oc2ccc3c(c2)C2=NCCN2C=N3)c1F` [Compound 8, N-(4-Amino-3-((2,3-dihydroimidazo[1,2-c]quinazolin-9-yl)oxy)-2-fluorophenyl)propane-1-sulfonamide]: the GI50 was over 1000 nM. Compound `CCCS(=O)(=O)Nc1ccc(F)c(Oc2ccc3c(c2)C2=NCCN2C=N3)c1F` [Compound 10, N-(3-((2,3-Dihydroimidazo[1,2-c]quinazolin-9-yl)oxy)-2,4-difluorophenyl)propane-1-sulfonamide] returned a GI50 of over 1000 nM. The compound `CCCS(=O)(=O)Nc1cccc(Oc2ccc3c(c2)C2=NCCN2C=N3)c1N` [Compound 13, N-(2-Amino-3-((2,3-dihydroimidazo[1,2-c]quinazolin-9-yl)oxy)phenyl)propane-1-sulfonamide] registered a GI50 of over 1000 nM. Under `CCCS(=O)(=O)Nc1c([N+](=O)[O-])ccc(Oc2ccc3c(c2)C2=NCCCN2C=N3)c1F` [Compound 19, N-(3-((3,4-Dihydro-2H-pyrimido[1,2-c]quinazolin-10-yl)oxy)-2-fluoro-6-nitrophenyl)propane-1-sulfonamide] stands over 1000 nM; under `CCCS(=O)(=O)Nc1c(N)ccc(Oc2ccc3c(c2)C2=NCCCN2C=N3)c1F` [Compound 20, N-(6-Amino-3-((3,4-dihydro-2H-pyrimido[1,2-c]quinazolin-10-yl)oxy)-2-fluorophenyl)propane-1-sulfonamide], over 1000 nM; under `CCCS(=O)(=O)Nc1ccnc(Oc2ccc3c(c2)C2=NCCCN2C=N3)c1[N+](=O)[O-]` [Compound 22, N-(2-((3,4-Dihydro-2H-pyrimido[1,2-c]quinazolin-10-yl)oxy)-3-nitropyridin-4-yl)propane-1-sulfonamide], over 1000 nM.

In turn, `CCCS(=O)(=O)Nc1nccc(Oc2ccc3c(c2)C2=NCCCN2C=N3)c1C#N` [Compound 24, N-(3-Cyano-4-((3,4-dihydro-2H-pyrimido[1,2-c]quinazolin-10-yl)oxy)pyridin-2-yl)propane-1-sulfonamide] gave a GI50 of over 1000 nM. Under `CCCS(=O)(=O)Nc1ccnc(Oc2ccc3c(c2)C2=NCCCN2C=N3)c1C#N` [Compound 25, N-(3-Cyano-2-((3,4-dihydro-2H-pyrimido[1,2-c]quinazolin-10-yl)oxy)pyridin-4-yl)propane-1-sulfonamide] stands over 1000 nM. `CCCS(=O)(=O)Nc1cccc(Oc2cc3c(cn2)N=CN2CCCN=C32)c1C#N` [Compound 27, N-(2-Cyano-3-((3,4-dihydro-2H-pyrido[4,3-e]pyrimido[1,2-c]pyrimidin-10-yl)oxy)phenyl)propane-1-sulfonamide]: the GI50 lay within 100 to 1000 nM. Under `CCCS(=O)(=O)Nc1cccc(Oc2ccc3c(c2)C2=NCCCCN2C=N3)c1C#N` [Compound 28, N-(2-Cyano-3-((2,3,4,5-tetrahydro-[1,3]diazepino[1,2-c]quinazolin-11-yl)oxy)phenyl)propane-1-sulfonamide] stands over 1000 nM. `O=S(=O)(CCCF)Nc1cccc(Oc2ccc3c(c2)C2=NCCCN2C=N3)c1Cl` [Compound 38, N-(2-Chloro-3-((3,4-dihydro-2H-pyrimido[1,2-c]quinazolin-10-yl)oxy)phenyl)-3-fluoropropane-1-sulfonamide] had a GI50 of under 100 nM. The compound `O=S(=O)(CCCO)Nc1cccc(Oc2ccc3c(c2)C2=NCCCN2C=N3)c1Cl` [Compound 39, N-(2-Chloro-3-((3,4-dihydro-2H-pyrimido[1,2-c]quinazolin-10-yl)oxy)phenyl)-3-hydroxypropane-1-sulfonamide] showed a GI50 of 100 to 1000 nM. Consider `O=S(=O)(Nc1cccc(Oc2ccc3c(c2)C2=NCCCN2C=N3)c1Cl)N1CC[C@@H](F)C1` [Compound 40, (R)—N-(2-Chloro-3-((3,4-dihydro-2H-pyrimido[1,2-c]quinazolin-10-yl)oxy)phenyl)-3-fluoropyrrolidine-1-sulfonamide], for which the GI50 is under 100 nM.

`CCN(C)S(=O)(=O)Nc1cccc(Oc2ccc3c(c2)C2=NCCCN2C=N3)c1Cl` [Compound 41, N-(2-Chloro-3-((3,4-dihydro-2H-pyrimido[1,2-c]quinazolin-10-yl)oxy)phenyl)-N-ethyl-N-methylamino-1-sulfonamide]: the GI50 is under 100 nM.

For the compound `CCCS(=O)(=O)Nc1cccc(N(C)c2cc3c(cn2)N=CN2CCCN=C32)c1C#N` [Compound 42, N-(2-Cyano-3-((3,4-dihydro-2H-pyrido[4,3-e]pyrimido[1,2-c]pyrimidin-10-yl)(methyl)amino)phenyl)propane-1-sulfonamide], the GI50 was over 1000 nM. With `CCCS(=O)(=O)Nc1cccc(Nc2cc3c(cn2)N=CN2CCCN=C32)c1C#N` [Compound 43, N-(2-Cyano-3-((3,4-dihydro-2H-pyrido[4,3-e]pyrimido[1,2-c]pyrimidin-10-yl)amino)phenyl)propane-1-sulfonamide], the GI50 was in the range of 100 to 1000 nM. The value for `CC(C)S(=O)(=O)Nc1cccc(Oc2ccc3c(c2)C2=NCCN2C=N3)c1Cl` [Compound 44, N-(2-Chloro-3-((2,3-dihydroimidazo[1,2-c]quinazolin-9-yl)oxy)phenyl)propane-2-sulfonamide] was under 100 nM. Under `CCN(C)S(=O)(=O)Nc1cccc(Oc2ccc3c(c2)C2=NCCN2C=N3)c1Cl` [Compound 45, N-(2-Chloro-3-((2,3-dihydroimidazo[1,2-c]quinazolin-9-yl)oxy)phenyl)-N-ethyl-N-methylamino-1-sulfonamide] stands over 1000 nM; under `CN(CCF)S(=O)(=O)Nc1cccc(Oc2ccc3c(c2)C2=NCCN2C=N3)c1Cl` [Compound 47, N-(2-Chloro-3-((2,3-dihydroimidazo[1,2-c]quinazolin-9-yl)oxy)phenyl)-(2-fluoroethyl)(methyl)amino-1-sulfonamide], under 100 nM; under `O=S(=O)(Nc1cccc(Oc2ccc3c(c2)C2=NCCN2C=N3)c1Cl)N1CCCC1` [Compound 48, N-(2-Chloro-3-((2,3-dihydroimidazo[1,2-c]quinazolin-9-yl)oxy)phenyl)pyrrolidine-1-sulfonamide], under 100 nM.

In turn, `O=S(=O)(Nc1cc(Oc2ccc3c(c2)C2=NCCN2C=N3)ccc1F)N1CCCC1` [Compound 49, N-(5-((2,3-Dihydroimidazo[1,2-c]quinazolin-9-yl)oxy)-2-fluorophenyl)pyrrolidine-1-sulfonamide] gave a GI50 of over 1000 nM. Under `CCCS(=O)(=O)Nc1cc(Oc2ccc3c(c2)C2=NCCN2C=N3)ccc1F` [Compound 51, N-(5-((2,3-Dihydroimidazo[1,2-c]quinazolin-9-yl)oxy)-2-fluorophenyl)propane-1-sulfonamide] stands over 1000 nM. In turn, `CC1(C)CN2C=Nc3ccc(Oc4cccc(NS(=O)(=O)N5CC[C@@H](F)C5)c4Cl)cc3C2=N1` [Compound 53, (R)—N-(2-Chloro-3-((2,2-dimethyl-2,3-dihydroimidazo[1,2-c]quinazolin-9-yl)oxy)phenyl)-3-fluoropyrrolidine-1-sulfonamide] gave a GI50 of under 100 nM.
